What follows are compounds tested against CXCR7 (Homo sapiens (Human), UniProt P25106) (assay: PathHunter CHO-K1 CXCR7 b-arrestin assay (agonistic activity)). Conditions: PathHunter CHO-K1 CXCR7 b-arrestin cell line.
Format: cell-based
Method: The CXCl12 receptor and CXCR7 agonistic activities of the compounds of formula (I) are determined in accordance with the following experimental method.
The assay is using the PathHunter™ CHO-K1 CXCR7 b-arrestin cell line from DiscoverX. The system is based on the Enzyme Fragment Complementation Technology. Two complementing fragments of the b-galactosidase enzyme are expressed within stably transfected cells. The larger portion of b-gal, termed EA for Enzyme Acceptor, is fused to the C-terminus of b-arrestin 2. The smaller fragment, termed ProLink™ tag, is fused to CXCR7 at the C-terminus. Upon activation, b-arrestin is recruited which forces the interaction of ProLink and EA, allowing complementation of the two fragments of b-gal and the formation of a functional enzyme which is capable of hydrolysing the substrate and generating a chemiluminescent signal.
CHO-K1 CXCR7 b-arrestin cells are detached from culture dishes with a cell dissociation buffer (Invitrogen, #13151-014) and collected in growing medium (F12 HAMS 90% (v/v)/FCS 10% (v/v), Penicilin/streptomycin 1% (v/v)). 5000 cells per well (in 20 μl) are seeded in a 384 well plate (white-walled, clear bottom; BD Falcon #353274). The plate is incubated at 37° C./5% CO2 for 24 hours. Medium is then replaced by 20 μl OPTIMEM (Invitrogen #31985) for 3 to 4 hours. Test compounds are dissolved at 10 mM in DMSO and serially diluted in DMSO to 200× of the final concentration for dose response curves. Compounds are then diluted 1:33.3 in HBSS1×. 5 μl/well of HBSS1×/20 mM HEPES/0.2% BSA are added to the assay plate followed by addition of 5 μl/well of diluted compounds. CXCL12 (Peprotech #300-28A) may be used as a reference agonist. The plate is incubated for 90 minutes at 37° C. 12 μl of detection reagent (Path Hunter Detection Kit, DiscoveRx, #93-0001) is transferred to the assay plate and to the plate is incubated for 1 hour at room temperature. Luminescent signal is read in a microplate reader (FLUOstar Optima, bmg). The calculated EC50 values may fluctuate depending on the daily cellular assay performance. Fluctuations of this kind are known to those skilled in the art. Average EC50 values from several measurements are given as geometric mean values.

Chain of CXCR7 (P25106 whole entry): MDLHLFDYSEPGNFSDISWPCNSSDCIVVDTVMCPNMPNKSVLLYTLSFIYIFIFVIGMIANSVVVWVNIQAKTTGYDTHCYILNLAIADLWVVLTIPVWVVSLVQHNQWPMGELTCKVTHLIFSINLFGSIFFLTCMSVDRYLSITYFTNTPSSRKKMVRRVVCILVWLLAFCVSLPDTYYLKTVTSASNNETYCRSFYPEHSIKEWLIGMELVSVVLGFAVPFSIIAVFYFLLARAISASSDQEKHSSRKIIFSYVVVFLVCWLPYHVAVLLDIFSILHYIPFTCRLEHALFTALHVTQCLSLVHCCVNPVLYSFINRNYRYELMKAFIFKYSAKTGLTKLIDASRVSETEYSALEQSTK
Chain of CXCR7 (P32121 whole entry partner): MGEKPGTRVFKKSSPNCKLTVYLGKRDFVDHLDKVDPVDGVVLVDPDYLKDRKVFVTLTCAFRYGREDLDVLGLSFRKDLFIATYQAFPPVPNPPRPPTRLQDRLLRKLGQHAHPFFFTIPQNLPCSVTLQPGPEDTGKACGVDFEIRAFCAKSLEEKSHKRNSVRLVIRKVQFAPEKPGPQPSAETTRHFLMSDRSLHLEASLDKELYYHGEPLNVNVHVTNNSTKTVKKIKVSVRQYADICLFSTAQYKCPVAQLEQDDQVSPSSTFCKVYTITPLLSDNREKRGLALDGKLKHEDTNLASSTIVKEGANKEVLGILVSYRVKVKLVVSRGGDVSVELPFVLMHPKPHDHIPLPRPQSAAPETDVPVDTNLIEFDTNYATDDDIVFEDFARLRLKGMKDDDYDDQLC

For `O=C(Nc1cccc(CN2CCC(C(=O)NC3CCCCC3)C2)c1)c1cccc(C(F)(F)F)n1` (racemic) [Example 2.099, rac-6-Trifluoromethyl-pyridine-2-carboxylic acid [3-(3-cyclohexylcarbamoyl-pyrrolidin-1-ylmethyl)-phenyl]-amide], which EC50 is on record?
The EC50 was 60 nM.

For `O=C(Cc1ccc(F)cc1Cl)Nc1cccc(CN2CCC(C(=O)NC3CCCCC3)C2)c1` (racemic) [Example 2.100, rac-1-{3-[2-(2-Chloro-4-fluoro-phenyl)-acetylamino]-benzyl}-pyrrolidine-3-carboxylic acid cyclohexylamide], which EC50 is on record?
The EC50 was 161 nM.

For `C[C@H]1C[C@@H](C(=O)NC(C)(C)C)CCN1Cc1cccc(NC(=O)c2cccc(C(F)(F)F)n2)c1` (racemic) [Example 2.102, rac-6-Trifluoromethyl-pyridine-2-carboxylic acid [3-((2S*,4S*)-4-tert-butylcarbamoyl-2-methyl-piperidin-1-ylmethyl)-phenyl]-amide], which EC50 is on record?
The EC50 was 4 nM.

With `Cc1cncc(C(=O)Nc2cccc(CN3CC[C@H](C(=O)NC(C)(C)C)C[C@@H]3C)c2)c1` (racemic) [Example 2.103, rac-N-[3-((2S*,4S*)-4-tert-Butylcarbamoyl-2-methyl-piperidin-1-ylmethyl)-phenyl]-5-methyl-nicotinamide] as the compound, how does the EC50 read?
Its EC50 is 17 nM.

For `Cc1cncc(C(=O)Nc2cccc(CN3CC[C@H](C(=O)NC4CCCCC4)C[C@@H]3C)c2)c1` (racemic) [Example 2.104, rac-N-[3-((2S*,4S*)-4-Cyclohexylcarbamoyl-2-methyl-piperidin-1-ylmethyl)-phenyl]-5-methyl-nicotinamide], which EC50 is on record?
The EC50 was 4 nM.

`Cc1sc(C(=O)Nc2cccc(CN3CCC(C(=O)NC4CCCCC4)CC3)c2)cc1CC(C)C` [Example 1.004] was tested. Which EC50 did it give?
Its EC50 is 40 nM.

How did the EC50 turn out when `Cc1cc(C(=O)Nc2cccc(CN3CCC(C(=O)NC4CCCCC4)CC3)c2)no1` [Example 1.005] was run?
Its EC50 is 18 nM.

Which EC50 does the source give for `O=C(Nc1cccc(CN2CCC(C(=O)NC3CCCCC3)CC2)c1)c1ccncn1` [Example 1.006] here?
Its EC50 is 2 nM.

With `O=C(Nc1cccc(CN2CCC(C(=O)NC3CCCCC3)CC2)c1)c1ccc2ccccc2c1` [Example 1.007] as the compound, how does the EC50 read?
Its EC50 is 6 nM.

With `O=C(Nc1cccc(CN2CCC(C(=O)NC3CCCCC3)CC2)c1)c1n[nH]c2ccccc12` [Example 1.008] as the compound, how does the EC50 read?
The EC50 was 35 nM.

For `COc1ccccc1C(=O)Nc1cccc(CN2CCC(C(=O)NC3CCCCC3)CC2)c1` [Example 1.009], which EC50 is on record?
The EC50 was 17 nM.

With `O=C(Nc1cccc(CN2CCC(C(=O)NC3CCCCC3)CC2)c1)c1cccc2ccncc12` [Example 1.010] as the compound, how does the EC50 read?
Its EC50 is 68 nM.

`O=C(Cc1ccccc1)Nc1cccc(CN2CCC(C(=O)NC3CCCCC3)CC2)c1` [Example 1.011] was tested. Which EC50 did it give?
Its EC50 is 7 nM.

How did the EC50 turn out when `O=C(Nc1cccc(CN2CCC(C(=O)NC3CCCCC3)CC2)c1)c1ccsc1` [Example 1.012] was run?
The EC50 was 4 nM.

`O=C(Cc1ccccn1)Nc1cccc(CN2CCC(C(=O)NC3CCCCC3)CC2)c1` [Example 1.013] was tested. Which EC50 did it give?
Its EC50 is 20 nM.

How did the EC50 turn out when `O=C(Nc1cccc(CN2CCC(C(=O)NC3CCCCC3)CC2)c1)c1ccccc1` [Example 1.014] was run?
Its EC50 is 3 nM.

For `O=C(Cc1ccc2ccccc2c1)Nc1cccc(CN2CCC(C(=O)NC3CCCCC3)CC2)c1` [Example 1.015], which EC50 is on record?
Its EC50 is 78 nM.

For `CC(C)C(=O)Nc1cccc(CN2CCC(C(=O)NC3CCCCC3)CC2)c1` [Example 1.016], which EC50 is on record?
The EC50 was 121 nM.

Which EC50 does the source give for `O=C(Nc1cccc(CN2CCC(C(=O)NC3CCCCC3)CC2)c1)C1CCCC1` [Example 1.017] here?
The EC50 was 29 nM.

`O=C(Nc1cccc(CN2CCC(C(=O)NC3CCCCC3)CC2)c1)c1cc(F)cc(F)c1` [Example 1.019] was tested. Which EC50 did it give?
The EC50 was 2 nM.

With `CC(C)(C)CC(=O)Nc1cccc(CN2CCC(C(=O)NC3CCCCC3)CC2)c1` [Example 1.020] as the compound, how does the EC50 read?
The EC50 was 25 nM.

For `O=C(Nc1cccc(CN2CCC(C(=O)NC3CCCCC3)CC2)c1)c1nccc2ccccc12` [Example 1.021], which EC50 is on record?
The EC50 was 39 nM.

Which EC50 does the source give for `O=C(Nc1cccc(CN2CCC(C(=O)NC3CCCCC3)CC2)c1)c1cncc2ccccc12` [Example 1.022] here?
Its EC50 is 97 nM.

For `COc1cccc(C(=O)Nc2cccc(CN3CCC(C(=O)NC4CCCCC4)CC3)c2)c1` [Example 1.023], which EC50 is on record?
Its EC50 is 4 nM.

Which EC50 does the source give for `O=C(Cc1cccc(Cl)c1)Nc1cccc(CN2CCC(C(=O)NC3CCCCC3)CC2)c1` [Example 1.024] here?
The EC50 was 10 nM.

With `O=C(Cc1ccccc1Cl)Nc1cccc(CN2CCC(C(=O)NC3CCCCC3)CC2)c1` [Example 1.025] as the compound, how does the EC50 read?
Its EC50 is 3 nM.

How did the EC50 turn out when `Cn1cc(C(=O)Nc2cccc(CN3CCC(C(=O)NC4CCCCC4)CC3)c2)c2ccccc21` [Example 1.026] was run?
The EC50 was 182 nM.

How did the EC50 turn out when `O=C(Nc1cccc(CN2CCC(C(=O)NC3CCCCC3)CC2)c1)c1c[nH]c2ccccc12` [Example 1.027] was run?
Its EC50 is 42 nM.

Which EC50 does the source give for `O=C(Nc1cccc(CN2CCC(C(=O)NC3CCCCC3)CC2)c1)c1coc2ccccc12` [Example 1.028] here?
Its EC50 is 4 nM.

Which EC50 does the source give for `Cn1cc(CC(=O)Nc2cccc(CN3CCC(C(=O)NC4CCCCC4)CC3)c2)c2ccccc21` [Example 1.030] here?
Its EC50 is 18 nM.

Which EC50 does the source give for `COc1ccc(C(=O)Nc2cccc(CN3CCC(C(=O)NC4CCCCC4)CC3)c2)cc1` [Example 1.031] here?
Its EC50 is 2 nM.

How did the EC50 turn out when `CC(C)(C)c1ccc(C(=O)Nc2cccc(CN3CCC(C(=O)NC4CCCCC4)CC3)c2)cc1` [Example 1.032] was run?
Its EC50 is 34 nM.

How did the EC50 turn out when `O=C(Nc1cccc(CN2CCC(C(=O)NC3CCCCC3)CC2)c1)c1cccc(Cl)c1` [Example 1.033] was run?
Its EC50 is 2 nM.

With `O=C(CCc1ccccc1)Nc1cccc(CN2CCC(C(=O)NC3CCCCC3)CC2)c1` [Example 1.034] as the compound, how does the EC50 read?
Its EC50 is 18 nM.

Which EC50 does the source give for `COc1ccccc1CC(=O)Nc1cccc(CN2CCC(C(=O)NC3CCCCC3)CC2)c1` [Example 1.035] here?
Its EC50 is 4 nM.

With `O=C(Cc1ccc(Cl)cc1)Nc1cccc(CN2CCC(C(=O)NC3CCCCC3)CC2)c1` [Example 1.037] as the compound, how does the EC50 read?
Its EC50 is 34 nM.

For `O=C(Nc1cccc(CN2CCC(C(=O)NC3CCCCC3)CC2)c1)c1ncc[nH]1` [Example 1.038], which EC50 is on record?
Its EC50 is 13 nM.

`O=C(Nc1cccc(CN2CCC(C(=O)NC3CCCCC3)CC2)c1)c1ccccn1` [Example 1.039] was tested. Which EC50 did it give?
The EC50 was 1 nM.

How did the EC50 turn out when `O=C(Nc1cccc(CN2CCC(C(=O)NC3CCCCC3)CC2)c1)c1cnc[nH]1` [Example 1.040] was run?
The EC50 was 1260 nM.

For `CC(C)Cc1ccc(C(=O)Nc2cccc(CN3CCC(C(=O)NC4CCCCC4)CC3)c2)cc1` [Example 1.041], which EC50 is on record?
The EC50 was 43 nM.

With `COc1ccc(CC(=O)Nc2cccc(CN3CCC(C(=O)NC4CCCCC4)CC3)c2)cc1` [Example 1.042] as the compound, how does the EC50 read?
Its EC50 is 79 nM.

`O=C(CC1CCCCC1)Nc1cccc(CN2CCC(C(=O)NC3CCCCC3)CC2)c1` [Example 1.043] was tested. Which EC50 did it give?
Its EC50 is 9 nM.

Which EC50 does the source give for `O=C(Nc1cccc(CN2CCC(C(=O)NC3CCCCC3)CC2)c1)c1cn[nH]c1` [Example 1.044] here?
Its EC50 is 1240 nM.

With `O=C(CCc1nc2ccccc2[nH]1)Nc1cccc(CN2CCC(C(=O)NC3CCCCC3)CC2)c1` [Example 1.045] as the compound, how does the EC50 read?
The EC50 was 2490 nM.

For `O=C(Nc1cccc(CN2CCC(C(=O)NC3CCCCC3)CC2)c1)c1ccc[nH]1` [Example 1.046], which EC50 is on record?
Its EC50 is 5 nM.

With `COc1cccc(CC(=O)Nc2cccc(CN3CCC(C(=O)NC4CCCCC4)CC3)c2)c1` [Example 1.047] as the compound, how does the EC50 read?
The EC50 was 17 nM.

How did the EC50 turn out when `O=C(Nc1cccc(CN2CCC(C(=O)NC3CCCCC3)CC2)c1)c1cccc2ccccc12` [Example 1.048] was run?
The EC50 was 46 nM.

With `O=C(Nc1cccc(CN2CCC(C(=O)NC3CCCCC3)CC2)c1)c1ccno1` [Example 1.049] as the compound, how does the EC50 read?
Its EC50 is 7 nM.

With `O=C(Nc1cccc(CN2CCC(C(=O)NC3CCCCC3)CC2)c1)c1ccccc1Cl` [Example 1.050] as the compound, how does the EC50 read?
The EC50 was 12 nM.

How did the EC50 turn out when `Cn1cnc(C(=O)Nc2cccc(CN3CCC(C(=O)NC4CCCCC4)CC3)c2)c1` [Example 1.051] was run?
The EC50 was 130 nM.

— patent US9428456B2, “1-[m-carboxamido(hetero)aryl-methyl]-heterocyclyl-carboxamide derivatives” (Actelion Pharmaceuticals Ltd., priority 2012, dated 2016)
